Measured values published in patent US9340577B2, “HLA binding motifs and peptides and their uses” (priority 1992, dated 2016).
No end group written: not given here.

Tests used:
Experiment in all cases: biochemical
Type in all cases: binding
A31 (A*3101) = A31 (A*3101) (Homo sapiens, UniProt P04439, A270S/D185E/E176V/E277Q/F33T/G231S/G80R/H175R/I121M/I218V/I322F/K168Q/L300P/L318F/M331R/P217A/Q94H/R138Q/T323A/T345S/T97I/V358M)
A*3301 = A*3301 (Homo sapiens, UniProt P04439, A270S/D185E/E176V/E277Q/E87N/F33T/G231S/H175R/I121M/I218V/I322F/K168Q/K210R/L300P/L318F/M331R/P217A/Q86R/Q94H/R138Q/T323A/T345S/T97I/V358M/Y195H)
A*6801 = A*6801 (Homo sapiens, UniProt P04439, A269V/D185E/E176V/E277Q/E87N/F33Y/G231S/I121M/I166T/I218V/L180W/L300P/L318F/N151K/P208A/P217A/Q86R/R169H/T345S)
HLA-A11 (A*1101) = HLA-A11 (A*1101) (Homo sapiens, UniProt P04439, A114D/D185E/E176A/F33Y/L180Q/S129P/T187R)
HLA-A3.2 (A*0301) = HLA-A3.2 (A*0301) (Homo sapiens, UniProt P04439)

Row | Sequence | IC50 (A31 (A*3101)) | IC50 (A*3301) | IC50 (A*6801) | IC50 (HLA-A11 (A*1101)) | IC50 (HLA-A3.2 (A*0301))
1 | ITYSDETQR [Peptide 88.0429] | 879 nM | 1350 nM | 26 nM | 165 nM | 2960 nM
2 | KFYSKISEYR [Peptide 78.0081] | 48 nM | 79 nM | 264 nM | 18000 nM | 1680 nM
3 | KGLGISYGRKK [Peptide 1577.23] | 49 nM | > 20000 nM | > 20000 nM | 6210 nM | 23 nM
4 | KIDWLIKRIR [Peptide 9017.0248] | 19 nM | 6690 nM | > 20000 nM | 8630 nM | 8650 nM
5 | KIKPPLPSVR [Peptide 9017.0234] | 8.1 nM | 3440 nM | 14700 nM | 6950 nM | 1110 nM
6 | KISEYRHYCY [Peptide 78.0082] | 4850 nM | 2350 nM | 2000 nM | 163 nM | 152 nM
7 | KLCLRFLSK [Peptide 1571.20] | 271 nM | > 20000 nM | > 20000 nM | 279 nM | 18 nM
8 | KLFGYSWYK [Peptide 76.0146] | 7.3 nM | 3720 nM | 16 nM | 7.3 nM | 11 nM
9 | KLFLKGVPK [Peptide 1587.41] | 1.5 nM | 9680 nM | > 20000 nM | 17 nM | 16 nM
10 | KLFLQGTPK [Peptide 88.0381] | 51 nM | > 20000 nM | 703 nM | 12 nM | 15 nM
11 | KLGIVTITY [Peptide 88.0428] | > 20000 nM | > 20000 nM | > 20000 nM | 3430 nM | 65 nM
12 | KLVEDRWNK [Peptide 9017.0107] | 61 nM | > 20000 nM | 18000 nM | 102 nM | 265 nM
13 | KQEAVRHFPR [Peptide 9017.0239] | 9.9 nM | 575 nM | 6740 nM | 394 nM | 9260 nM
14 | KSCFAMSLIK [Peptide 88.0190] | 311 nM | > 20000 nM | 12200 nM | 17 nM | 57 nM
15 | KSFFSRTWCK [Peptide 88.0170] | 5.4 nM | 22 nM | 219 nM | 12 nM | 7.9 nM
16 | KSFLKGTPK [Peptide 88.0344] | 22 nM | 16100 nM | 1910 nM | 23 nM | 16 nM
17 | KSFLKGTPKK [Peptide 88.0149] | 572 nM | > 20000 nM | > 20000 nM | 89 nM | 48 nM
18 | KTASVGTPK [Peptide 1589.27] | 44 nM | > 20000 nM | 8.5 nM | 13 nM | 11 nM
19 | KTDEGGDWK [Peptide 88.0380] | > 20000 nM | 13100 nM | 9890 nM | 407 nM | 3630 nM
20 | KTLLQPYCLY [Peptide 88.0153] | 4280 nM | 19600 nM | > 20000 nM | 405 nM | 180 nM
21 | KTTPVVHLK [Peptide 1589.37] | 28 nM | > 20000 nM | 33 nM | 22 nM | 28 nM
22 | KTTVLFKFK [Peptide 88.0369] | 36 nM | 1400 nM | 874 nM | 20 nM | 31 nM
23 | KVSEFRWYR [Peptide 78.0281] | 10 nM | 32 nM | 23 nM | 15 nM | 43 nM
24 | KVSPIVHLK [Peptide 1589.42] | 6 nM | > 20000 nM | 25 nM | 30 nM | 21 nM
25 | LFYSKVRKYK [Peptide 88.0098] | 18 nM | 30 nM | 1980 nM | 2580 nM | 680 nM
26 | LLFYSKVRK [Peptide 78.0298] | 395 nM | 799 nM | 23 nM | 13 nM | 3.9 nM
27 | LLLIRFKCSK [Peptide 88.0191] | 749 nM | 17400 nM | 879 nM | 3520 nM | 284 nM
